From patent US11673894B2, “Imidazopyrimidines and triazolopyrimidines as A2A / A2B inhibitors” (Incyte Corporation, priority 2018, dated 2023) come the findings set out here.

Test [1] concerns the target human adenosine A2B receptor (Homo sapiens (Human), UniProt P29275). In words: Adenosine A2B Receptor Cyclic AMP GS Assay. It counts as cell-based. The following applies: HEK-293 cells expressing human A2B receptor; agonist NECA at 12 nM; cAMP accumulation (FRET); read-out: A2B_cAMP_EC50. How it is done: Stably transfected HEK-293 cells expressing the human adenosine A2B receptor (Perkin Elmer) were maintained in MEM culture medium with 10% FBS and 100 μg/ml Geneticin (Life Technologies). 18 to 24 hours prior to assay, geneticin was removed from culture. The cisbio cAMP-GS Dynamic kit utilizing the FRET (Fluorescence Resonance Energy Transfer) technology was used to measure cAMP accumulation in the cells. Compounds of the present disclosure at an appropriate concentration were mixed with 10000 cells/well in white 96 well half area plates (Perkin Elmer) for 30 min at RT gently shaking. Agonist, NECA (R&D Technologies) at 12 nM was added to each well for 60 min at RT gently shaking. Detection reagents, d2-labeled cAMP (acceptor) and anti-cAMP cryptate (donor) were added to each well for 60 min at RT gently shaking. Plates were read on Pherastar (BMG Labtech), fluorescence ratio 665/620 was calculated and EC50 determination was performed by fitting the curve of percent of control versus the log of the compound concentration using GraphPad Prism.

The target of a further test is Adenosine A2A receptor (Homo sapiens (Human), UniProt P29274). In words: A2A Tag-lite HTRF Assay. Conditions: Tag-lite Adenosine A2A labeled cells; A2A Receptor Red antagonist fluorescent ligand 12.5 nM; one-site competitive binding model; read-out: A2A_Ki. An excerpt: The final concentration of DMSO was 1%.
(TR-FRET usually uses a lanthanide donor and a delayed reading to cut background.)

Chain of human adenosine A2B receptor (P29275 whole entry): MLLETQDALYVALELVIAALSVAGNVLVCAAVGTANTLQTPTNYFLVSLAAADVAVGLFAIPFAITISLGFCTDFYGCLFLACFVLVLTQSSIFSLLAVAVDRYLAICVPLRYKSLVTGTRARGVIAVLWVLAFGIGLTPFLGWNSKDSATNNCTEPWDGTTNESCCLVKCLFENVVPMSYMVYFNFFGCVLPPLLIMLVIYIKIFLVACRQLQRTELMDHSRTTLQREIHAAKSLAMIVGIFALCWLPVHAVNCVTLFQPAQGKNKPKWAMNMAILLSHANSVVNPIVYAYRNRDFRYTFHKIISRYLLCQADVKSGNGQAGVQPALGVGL
Chain of Adenosine A2A receptor (P29274 whole entry): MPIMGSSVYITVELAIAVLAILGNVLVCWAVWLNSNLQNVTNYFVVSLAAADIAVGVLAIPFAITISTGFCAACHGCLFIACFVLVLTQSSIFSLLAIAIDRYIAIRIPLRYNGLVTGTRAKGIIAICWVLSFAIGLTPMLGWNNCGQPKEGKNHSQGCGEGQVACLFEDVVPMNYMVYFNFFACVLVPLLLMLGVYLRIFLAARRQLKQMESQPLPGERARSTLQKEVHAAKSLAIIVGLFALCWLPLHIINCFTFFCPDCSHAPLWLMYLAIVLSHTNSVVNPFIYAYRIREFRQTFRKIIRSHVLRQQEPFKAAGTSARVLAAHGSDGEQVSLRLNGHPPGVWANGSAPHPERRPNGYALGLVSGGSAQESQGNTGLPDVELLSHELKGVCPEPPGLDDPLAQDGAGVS

Regarding `CCc1ncoc1-c1c(-c2cccc(C#N)c2)nc(N)n2nc(Cc3ccccn3)nc12` [Example 82, 3-(5-Amino-8-(4-ethyloxazol-5-yl)-2-(pyridin-2-ylmethyl)-[1,2,4]triazolo[1,5-c]pyrimidin-7-yl)benzonitrile], the EC50 in test [1] is under 10 nM. On Adenosine A2A receptor, the Ki is under 10 nM.

Regarding `CCNC(=O)c1cn2c(N)nc(-c3cccc(C#N)c3)c(-c3ccnc4c3OCCO4)c2n1` [Example 39, 5-Amino-7-(3-cyanophenyl)-8-(2,3-dihydro-[1,4]dioxino[2,3-b]pyridin-8-yl)-N-ethylimidazo[1,2-c]pyrimidine-2-carboxamide], in test [1], the EC50 lay within 10 to 100 nM. The Ki at Adenosine A2A receptor is under 10 nM.

In the case of `Cc1ncoc1-c1c(-c2cccc(C#N)c2)nc(N)n2nc(Cc3cccc(C(F)(F)F)n3)nc12` [Example 89, 3-(5-Amino-8-(4-methyloxazol-5-yl)-2-((6-(trifluoromethyl)pyridin-2-yl)methyl)-[1,2,4]triazolo[1,5-c]pyrimidin-7-yl)benzonitrile], the EC50 in test [1] is under 10 nM. Further, on Adenosine A2A receptor, the Ki was under 10 nM.

Regarding `N#Cc1cccc(-c2nc(N)n3nc(Cc4ccccc4F)nc3c2-c2ccncn2)c1` [Example 49, 3-(5-Amino-2-(2-fluorobenzyl)-8-(pyrimidin-4-yl)-[1,2,4]triazolo[1,5-c]pyrimidin-7-yl)benzonitrile], the EC50 in test [1] was under 10 nM. Moreover, the Ki on Adenosine A2A receptor was under 10 nM.

For the compound `N#Cc1cccc(-c2nc(N)n3nc(C4CCOC4)nc3c2-c2ccncc2)c1` (stereo not shown) [Example 70, 3-(5-Amino-8-(pyridin-4-yl)-2-(tetrahydrofuran-3-yl)-[1,2,4]triazolo[1,5-c]pyrimidin-7-yl)benzonitrile], the EC50 in test [1] fell in the range of 10 to 100 nM. The Ki at Adenosine A2A receptor is under 10 nM.

`CCNC(=O)c1nc2c(-c3cc(C)nc(C)c3)c(-c3ccccc3)nc(N)n2c1C#N` [Example 21, 5-Amino-3-cyano-8-(2,6-dimethylpyridin-4-yl)-N-ethyl-7-phenylimidazo[1,2-c]pyrimidine-2-carboxamide]: the EC50 in test [1] was over 1000 nM. For the same compound, the Ki at Adenosine A2A receptor was under 10 nM.

Consider `CCn1cc(-c2c(-c3cccc(C#N)c3)nc(N)n3cc(C(=O)Nc4cnn(CCO)c4)nc23)ccc1=O` [Example 25, 5-Amino-7-(3-cyanophenyl)-8-(1-ethyl-6-oxo-1,6-dihydropyridin-3-yl)-N-(1-(2-hydroxyethyl)-1H-pyrazol-4-yl)imidazo[1,2-c]pyrimidine-2-carboxamide], for which, in test [1], the EC50 lay within 100 to 1000 nM. The Ki at Adenosine A2A receptor is under 10 nM.

On to `N#Cc1cccc(-c2nc(N)n3nc(Cc4c(F)cccc4CN4C[C@@H](O)[C@H](F)C4)nc3c2-c2ccncn2)c1` [Example 72, 3-(5-Amino-2-(2-fluoro-6-(((3R,4R)-3-fluoro-4-hydroxypyrrolidin-1-yl)methyl)benzyl)-8-(pyrimidin-4-yl)-[1,2,4]triazolo[1,5-c]pyrimidin-7-yl)benzonitrile], for which the EC50 in test [1] is 10 to 100 nM. At Adenosine A2A receptor, the Ki was under 10 nM.

Consider `CCn1cc(-c2c(-c3cccc(C#N)c3)nc(N)n3cc(C(=O)N4CC(O)C4)nc23)ccc1=O` [Example 24, 3-(5-Amino-8-(1-ethyl-6-oxo-1,6-dihydropyridin-3-yl)-2-(3-hydroxyazetidine-1-carbonyl)imidazo[1,2-c]pyrimidin-7-yl)benzonitrile], for which the EC50 in test [1] was under 10 nM. Moreover, the Ki at Adenosine A2A receptor is under 10 nM.

Take `Cc1nc(CO)c(-c2c(-c3cccc(C#N)c3)nc(N)n3nc(Cc4ccccn4)nc23)o1` [Example 62, 3-(5-Amino-8-(4-(hydroxymethyl)-2-methyloxazol-5-yl)-2-(pyridin-2-ylmethyl)-[1,2,4]triazolo[1,5-c]pyrimidin-7-yl)benzonitrile]: in test [1], the EC50 is under 10 nM. On Adenosine A2A receptor, the Ki was under 10 nM.

As for `Cc1ncoc1-c1c(-c2cccc(C#N)c2)nc(N)n2nc(Cc3ncccc3CO)nc12` [Example 91, 3-(5-Amino-2-((3-(hydroxymethyl)pyridin-2-yl)methyl)-8-(4-methyloxazol-5-yl)-[1,2,4]triazolo[1,5-c]pyrimidin-7-yl)benzonitrile], in test [1], the EC50 was under 10 nM. Besides, the Ki on Adenosine A2A receptor is under 10 nM.

Regarding `N#Cc1cccc(-c2nc(N)n3nc(Cc4ccccn4)nc3c2-c2ccncn2)c1` [Example 41, 3-(5-Amino-2-(pyridin-2-ylmethyl)-8-(pyrimidin-4-yl)-[1,2,4]triazolo[1,5-c]pyrimidin-7-yl)benzonitrile], the EC50 in test [1] is under 10 nM. Also, on Adenosine A2A receptor, the Ki is under 10 nM.

Turning to `CN(Cc1cccc(F)c1Cc1nc2c(-c3ccncn3)c(-c3cccc(C#N)c3)nc(N)n2n1)S(C)(=O)=O` [Example 74, N-(2-((5-Amino-7-(3-cyanophenyl)-8-(pyrimidin-4-yl)-[1,2,4]triazolo[1,5-c]pyrimidin-2-yl)methyl)-3-fluorobenzyl)-N-methylmethanesulfonamide], in test [1], the EC50 was under 10 nM. The Ki at Adenosine A2A receptor was under 10 nM.

In the case of `N#Cc1cccc(-c2nc(Nc3ncccc3C#N)n3nc(C(O)c4ccccc4)nc3c2-c2ccncn2)c1` (stereo not shown) [Example 68, 2-((7-(3-Cyanophenyl)-2-(hydroxy(phenyl)methyl)-8-(pyrimidin-4-yl)-[1,2,4]triazolo[1,5-c]pyrimidin-5-yl)amino)nicotinonitrile], in test [1], the EC50 fell in the range of 100 to 1000 nM. For the same compound, on Adenosine A2A receptor, the Ki was under 10 nM.

Consider `CCNC(=O)c1cn2c(N)nc(-c3ccccc3)c(C3=CCN(C(N)=O)CC3)c2n1` [Example 15, 5-Amino-8-(1-carbamoyl-1,2,3,6-tetrahydropyridin-4-yl)-N-ethyl-7-phenylimidazo[1,2-c]pyrimidine-2-carboxamide], for which the EC50 in test [1] lay in the range of 100 to 1000 nM. The Ki at Adenosine A2A receptor is under 10 nM.

For `Cc1nc(CO)c(-c2c(-c3cccc(C#N)c3)nc(N)n3nc(Cc4ncccc4F)nc23)o1` [Example 85, 3-(5-Amino-2-((3-fluoropyridin-2-yl)methyl)-8-(4-(hydroxymethyl)-2-methyloxazol-5-yl)-[1,2,4]triazolo[1,5-c]pyrimidin-7-yl)benzonitrile], the EC50 in test [1] is under 10 nM. Also, on Adenosine A2A receptor, the Ki is under 10 nM.

`N#Cc1cccc(-c2nc(N)n3nc(C(O)c4c(F)cccc4F)nc3c2-c2ccncn2)c1` (single isomer, unassigned) [Example 77, 3-(5-Amino-2-((2,6-difluorophenyl)(hydroxy)methyl)-8-(pyrimidin-4-yl)-[1,2,4]triazolo[1,5-c]pyrimidin-7-yl)benzonitrile]: the EC50 in test [1] is 10 to 100 nM.

In the case of `Nc1nc(-c2cc3ccccc3o2)c(-c2ccncc2)c2nccn12` [Example 8, 7-(Benzofuran-2-yl)-8-(pyridin-4-yl)imidazo[1,2-c]pyrimidin-5-amine], the Ki on Adenosine A2A receptor was 100 to 1000 nM.

In the case of `Cc1cc(-c2c(-c3cnc4c(c3)CCN4)nc(N)n3ccnc23)cc(C)n1` [Example 2, 7-(2,3-Dihydro-1H-pyrrolo[2,3-b]pyridin-5-yl)-8-(2,6-dimethylpyridin-4-yl)imidazo[1,2-c]pyrimidin-5-amine], the Ki at Adenosine A2A receptor lay within 100 to 1000 nM.

For `Cc1occc1-c1nc(N)n2ccnc2c1-c1ccncc1` [Example 6, 7-(2-Methylfuran-3-yl)-8-(pyridin-4-yl)imidazo[1,2-c]pyrimidin-5-amine], the Ki at Adenosine A2A receptor lay within 10 to 100 nM.

Turning to `Cc1cc(-c2c(-c3cnn(C)c3)nc(N)n3ccnc23)ccn1` [Example 9, 7-(1-Methyl-1H-pyrazol-4-yl)-8-(2-methylpyridin-4-yl)imidazo[1,2-c]pyrimidin-5-amine], the Ki on Adenosine A2A receptor lay in the range of 10 to 100 nM.

Consider `Cc1cc(-c2c(-c3ccccc3)nc(N)n3c(CN4CCOCC4)cnc23)cc(C)n1` [Example 3, 8-(2,6-Dimethylpyridin-4-yl)-3-(morpholinomethyl)-7-phenylimidazo[1,2-c]pyrimidin-5-amine], for which, on Adenosine A2A receptor, the Ki fell in the range of 10 to 100 nM.

As to `COC(=O)c1cc(-c2cn3c(N)nc(-c4ccccc4)c(-c4ccncc4)c3n2)on1` [Example 12, Methyl 5-(5-amino-7-phenyl-8-(pyridin-4-yl)imidazo[1,2-c]pyrimidin-2-yl)isoxazole-3-carboxylate], the Ki on Adenosine A2A receptor lay in the range of 10 to 100 nM.

`CCOC(=O)c1cn2c(N)nc(-c3ccccc3)c(-c3ccnc(C)c3)c2n1` [Example 11, Ethyl 5-amino-8-(2-methylpyridin-4-yl)-7-phenylimidazo[1,2-c]pyrimidine-2-carboxylate]: the Ki at Adenosine A2A receptor is 10 to 100 nM.

`CCOc1ccc(-c2cnc3c(-c4ccnc(C)c4)c(-c4ccccc4)nc(N)n23)cc1` [Example 13, 3-(4-Ethoxyphenyl)-8-(2-methylpyridin-4-yl)-7-phenylimidazo[1,2-c]pyrimidin-5-amine]: the Ki on Adenosine A2A receptor lay in the range of 10 to 100 nM.

As for `N#Cc1cccc(-c2nc(N)n3nc(C(O)c4c(F)cccc4F)nc3c2-c2ccncn2)c1` (single isomer, unassigned) [Example 76, 3-(5-Amino-2-((2,6-difluorophenyl)(hydroxy)methyl)-8-(pyrimidin-4-yl)-[1,2,4]triazolo[1,5-c]pyrimidin-7-yl)benzonitrile], the EC50 in test [1] is under 10 nM.

With `CCNC(=O)c1cn2c(N)nc(-c3ccccc3)c(-c3cc(C)[n+]([O-])c(C)c3)c2n1` [Example 23, 4-(5-Amino-2-(ethylcarbamoyl)-7-phenylimidazo[1,2-c]pyrimidin-8-yl)-2,6-dimethylpyridine 1-oxide], the Ki on Adenosine A2A receptor was under 10 nM.
